According to patent US8084621B2, “3-Pyrrolo[b]cyclohexylene-2-dihydroindolinone derivatives and uses thereof” (Jiangsu Simcere Pharmaceutical R&D Co. Ltd., priority 2006, dated 2011):

Assays:
Assay type in all cases: cell-based
[1] = system: Human Non-Small Cell Lung Cancer Cell Line (A549); assay: Tumor cell proliferation assay (MTT), A549; conditions: for inhibition at 10 µM: concentration of 10^−5 mol/L, preliminary screening, 72 hours, read-out: Inhibition rate % A549; for IC50: secondary screening, 48 hours
Description: (§1) The assay used generally is the blue tetrazolium bromide (MTT) method. […] The amount of formazan can be detected by the microplate reader through the absorption value at 570 nm. The amount of formazan product generated is proportional to the number of living cells in the sample, so the OD value may reflect the number of living cells and the ability of a test drug to inhibit or kill cells. The MTT assay may be used in determining the ability of different compounds of the present invention to inhibit one or more cancer cells proliferation. Similar assays can be designed along the same lines for any cancer cell using techniques well known in the art.
(§2) The assay used generally is the blue tetrazolium bromide (MTT) method. […] Intracellular purple formazan salt crystals can be solved in DMSO and the absorption value at 570 nm is detected by the microplate reader, then the number of living cells can be detected indirectly. So MTT assay may be used to determine the ability of a compound of the present invention to inhibit cell proliferation. Similar assays can be designed along the same lines for any cancer cell using techniques well known in the art.
2.2.2 Human Non-Small Cell Lung Cancer Cell Line (A549)
(§3) The cells of the 2.2.1, 2.2.2, 2.2.3, 2.2.4, 2.2.5 cultured with RPMI 1640 containing 12% calf serum in the condition of 37° C., 5% CO2.
(§4) 2.3.1 Cell seeding: Trypsinize the cell by 0.05% trypsin-EDTA and add RPMI 1640 medium (DMEM or 5A) containing 12% calf serum. Count the number, then dilute to 1.67×10^4/ml. Add 180 ul/well to the 96 well plate (3000 cells/well).
(§5) 2.3.2 Culture: cells are incubated for 24 hours at 37° C. under 5% CO2.
(§6) 2.3.3 Preliminary screening: The compounds are firstly diluted to 0.1 mol/L with DMSO, and then diluted to three concentrations of 10^−5 mol/L, 10^−6 mol/L and 10^−7 mol/L. Add 20 ul test compounds to the 96 well plate and incubate for 72 hours. Each group has three parallel wells and all experiments repeat three times. Each inhibition ratio is calculated, then an average value of three times is taken as the measured value. 2.3.4 Staining 2.3.4.1 Attached cell: add 20 ul/well MTT to the 96-well plates; incubate for 4 hours in the incubator. Pour out the culture medium in the well and add 100 ul/well DMSO. Shake the plate for 5 min. 2.3.4.2 Suspension cell: add 20 ul/well MTT to the 96-well plates; incubate for 4 hours in the incubator. Add 50 ul/well 20% SDS and incubate for overnight in the incubator. 2.3.5 Reading the plates: read the absorbance A570-A630 with the Infinite M200 microtiter plate reader. Calculate the inhibition ratio of the test compounds. 2.3.6 Secondary screening: the compounds whose inhibition ratio is greater than 50% at the concentrations of 10^−5 mol/L in the preliminary screening will be picked out for Secondary screening. Dilute these compounds to ten concentrations: 10^−5 mol/L, 0.5×10^−5 mol/L, 10^−6 mol/L, 0.8×10^−6 mol/L, 0.6×10^−6 mol/L, 0.4×10^−6 mol/L, 0.2×10^−6 mol/L, 10^−7 mol/L, 0.8×10^−7 mol/L and 0.4×10^−7 mol/L. Add 20 ul test compound solution to the 96 well plate and incubate for 48 hours. Each group has three parallel wells and all experiments repeat for three times. Read the plates and calculate the inhibition ratio according to the preliminary screening method. 2.3.7 Calculate the Inhibition Ratio of Cell Proliferation and the IC50
(§7) According to the inhibition ratio of cell proliferation at the different concentrations of the compound, inhibition ratio of 50% of the test compound is calculated through the logarithm of the concentration of the compound with the Logit [I] linear regression, and an average value of three times is taken as the measured value of a sample.

[2] = system: Human Hepatocellular Carcinoma Cell Line (HEPG2); assay: Tumor cell proliferation assay (MTT), HEPG2; conditions: for inhibition at 10 µM: concentration of 10^−5 mol/L, preliminary screening, 72 hours, read-out: Inhibition rate % HEPG2; for IC50: secondary screening, 48 hours
Description: as §1, §2
2.2.8 Human Hepatocellular Carcinoma Cell Line (HEPG2);
The cells of 2.2.8, 2.2.9 cultured in DMEM/High glucose medium containing 12% calf serum in the condition of 37° C., 5% CO2.
as §4, §5, §6, §7

[3] = system: Human Colon Cancer Cell Line (CACO-2); assay: Tumor cell proliferation assay (MTT), CACO-2; conditions: concentration of 10^−5 mol/L, preliminary screening, 72 hours, read-out: Inhibition rate % CACO-2
Description: as §1, §2
2.2.10 Human Colon Cancer Cell Line (CACO-2)
The cell of 2.2.10 cultured in DMEM/High glucose medium containing 12% fetal bovine serum in the condition of 37° C., 5% CO2.
as §4, §5, §6, §7

[4] = system: Human Colon Cancer Cell Line (HT-29); assay: Tumor cell proliferation assay (MTT), HT29; conditions: for inhibition at 10 µM: concentration of 10^−5 mol/L, preliminary screening, 72 hours, read-out: Inhibition rate % HT29; for IC50: secondary screening, 48 hours
Description: as §1, §2
2.2.11 Human Colon Cancer Cell Line (HT-29);
(§8) The cells of 2.2.11, 2.2.12, 2.2.13 were cultured in MC COYS 5-A medium containing 12% fetal bovine serum in the condition of 37° C., 5% CO2.
as §4, §5
as §6, with “2.3.6 Secondary screening: the compounds whose inhibition ratio is greater than 50% at the concentrations of 10^−5 mol/L in the preliminary screening will be picked out for Secondary screening.” left out
as §7

[5] = system: Human Pancreatic Carcinoma Cells (PANC-1); assay: Tumor cell proliferation assay (MTT), PANC-1; conditions: for inhibition at 10 µM: concentration of 10^−5 mol/L, preliminary screening, 72 hours, read-out: Inhibition rate % PANC-1; for IC50: secondary screening, 48 hours
Description: as §1, §2
2.2.4 Human Pancreatic Carcinoma Cells (PANC-1)
as §3, §4, §5, §6, §7

[6] = system: Human Pancreatic Carcinoma Cell Line (BXPC-3); assay: Tumor cell proliferation assay (MTT), BXPC-3; conditions: for inhibition at 10 µM: concentration of 10^−5 mol/L, preliminary screening, 72 hours, read-out: Inhibition rate % BXPC-3; for IC50: secondary screening, 48 hours
Description: as §1, §2
2.2.6 Human Pancreatic Carcinoma Cell Line (BXPC-3);
(§9) The cells of 2.2.6, 2.2.7 cultured in RPMI 1640 medium containing 12% fetal bovine serum in the condition of 37° C., 5% CO2.
as §4, §5
as §6, with “2.3.6 Secondary screening: the compounds whose inhibition ratio is greater than 50% at the concentrations of 10^−5 mol/L in the preliminary screening will be picked out for Secondary screening.” left out
as §7

[7] = system: Human Gastric Cancer Cell Line (BGC); assay: Tumor cell proliferation assay (MTT), BGC; conditions: for inhibition at 10 µM: concentration of 10^−5 mol/L, preliminary screening, 72 hours, read-out: Inhibition rate % BGC; for IC50: secondary screening, 48 hours
Description: as §1, §2
2.2.1 Human Gastric Cancer Cell Line (BGC)
as §3, §4, §5, §6, §7

[8] = system: Human Bladder Cancer Cell Line (T24); assay: Tumor cell proliferation assay (MTT), T24; conditions: for inhibition at 10 µM: concentration of 10^−5 mol/L, preliminary screening, 72 hours, read-out: Inhibition rate % T24; for IC50: secondary screening, 48 hours
Description: as §1, §2
2.2.7 Human Bladder Cancer Cell Line (T24);
as §9, §4, §5, §6, §7

[9] = system: Human Ovarian Cancer Cell Line (SK-OV-3); assay: Tumor cell proliferation assay (MTT), SK-OV-3; conditions: for inhibition at 10 µM: concentration of 10^−5 mol/L, preliminary screening, 72 hours, read-out: Inhibition rate % SK-OV-3; for IC50: secondary screening, 48 hours
Description: as §1, §2
2.2.13 Human Ovarian Cancer Cell Line (SK-OV-3).
as §8, §4, §5, §6, §7

[10] = system: Human Small Cell Lung Cancer Cell Line (NCI-H446); assay: Tumor cell proliferation assay (MTT), NCI-H446; conditions: for inhibition at 10 µM: concentration of 10^−5 mol/L, preliminary screening, 72 hours, read-out: Inhibition rate % NCI-H446; for IC50: secondary screening, 48 hours
Description: as §1, §2
2.2.5 Human Small Cell Lung Cancer Cell Line (NCI-H446)
as §3, §4, §5, §6, §7

[11] = system: Human Colon Cancer Cell Line (HCT 116); assay: Tumor cell proliferation assay (MTT), HCT116; conditions: concentration of 10^−5 mol/L, preliminary screening, 72 hours, read-out: Inhibition rate % HCT116
Description: as §1, §2
2.2.12 Human Colon Cancer Cell Line (HCT 116);
as §8, §4, §5, §6, §7

[12] = system: Human Leukemia Line (K562); assay: Tumor cell proliferation assay (MTT), K562; conditions: concentration of 10^−5 mol/L, preliminary screening, 72 hours, read-out: Inhibition rate % K562
Description: as §1, §2
2.2.3 Human Leukemia Line (K562)
as §3, §4, §5, §6, §7

Row | SMILES | inhibition at 10 µM [1] [%] | inhibition at 10 µM [2] [%] | inhibition at 10 µM [3] [%] | inhibition at 10 µM [4] [%] | inhibition at 10 µM [5] [%] | inhibition at 10 µM [6] [%] | inhibition at 10 µM [7] [%] | inhibition at 10 µM [8] [%] | further results
1 | Cc1[nH]c2c(c1C(=O)N1CCOCC1)CCC/C2=C1/C(=O)Nc2ccc(F)cc21 [I-10, 2-methyl-3-(morpholine-4-carbonyl)-7-[1,2-dihydro-5-fluoro-2-oxo-3H-indol-(Z)-3-ylidene]-4,5,6,7-tetrahydro-1H-indole] | 7.64 | 43.5 | 0 | 30.9 | 11.7 | 51.7 | 15.2 | 27.5 | –
2 | Cc1[nH]c2c(c1C(=O)N1CCOCC1)CCC/C2=C1/C(=O)Nc2ccc(Cl)cc21 [I-11, 2-methyl-3-(morpholine-4-carbonyl)-7-[1,2-dihydro-5-chloro-2-oxo-3H-indol-(Z)-3-ylidene]-4,5,6,7-tetrahydro-1H-indole] | – | 2.92 | – | – | – | – | – | 0 | –
3 | CCN(CC)CC(O)CNC(=O)c1c(C)[nH]c2c1CCC/C2=C1/C(=O)Nc2ccc(Cl)cc21 (stereo not drawn) [I-65, N-(3-(diethylamino)-2-hydroxypropyl)-2-methyl-7-[1,2-dihydro-5-chloro-2-oxo-3H-indol-(Z)-3-ylidene]-4,5,6,7-tetrahydro-1H-indole-3-carboxamide] | 85 | 100 | – | 98.3 | 98.1 | 99.2 | 91.1 | 97.9 | IC50 [1]: 2.38 µM; inhibition at 10 µM [9]: 95.7%; IC50 [9]: 2.23 µM; IC50 [2]: 2.8 µM; IC50 [4]: 3.06 µM; IC50 [5]: 1.67 µM; IC50 [6]: 1.15 µM; IC50 [7]: 1.72 µM; IC50 [8]: 2.73 µM; inhibition at 10 µM [10]: 99%; IC50 [10]: 1.5 µM
4 | Cc1[nH]c2c(c1C(=O)NCC(O)CN1CCCCC1)CCC/C2=C1/C(=O)Nc2ccc(Cl)cc21 (stereo not drawn) [I-75, N-(2-hydroxy-3-(piperidin-1-yl)propyl)-2-methyl-7-[1,2-dihydro-5-chloro-2-oxo-3H-indol-(Z)-3-ylidene]-4,5,6,7-tetrahydro-1H-indole-3-carboxamide] | 40.1 | 99 | – | 67.3 | 53.6 | 73.1 | 45.4 | 99.9 | IC50 [1]: 14.5 µM; inhibition at 10 µM [9]: 49.2%; IC50 [9]: 5.69 µM; IC50 [2]: 3.59 µM; IC50 [4]: 5.17 µM; IC50 [5]: 3.58 µM; IC50 [6]: 4.47 µM; IC50 [7]: 11.1 µM; IC50 [8]: 3.99 µM; inhibition at 10 µM [10]: 44.1%; IC50 [10]: 9.25 µM
5 | Cc1[nH]c2c(c1C(=O)N1CCN(C)CC1)CCC/C2=C1/C(=O)Nc2ccccc21 [I-13, 2-methyl-3-(4-methylpiperazine-1-carbonyl)-7-[1,2-dihydro-2-oxo-3H-indol-(Z)-3-ylidene]-4,5,6,7-tetrahydro-1H-indole] | 3.82 | 46 | 9.79 | 63.2 | 0 | 42.4 | 11.1 | 9.04 | –
6 | Cc1[nH]c2c(c1C(=O)N(C)C)CCC/C2=C1/C(=O)Nc2ccccc21 [I-15, N,N,2-trimethyl-7-[1,2-dihydro-2-oxo-3H-indol-(Z)-3-ylidene]-4,5,6,7-tetrahydro-1H-indole-3-carboxamide] | – | 61.1 | – | – | – | – | – | 74.8 | –
7 | Cc1[nH]c2c(c1C(=O)N1CCOCC1)CCC/C2=C1/C(=O)Nc2ccccc21 [I-12, 2-methyl-3-(morpholine-4-carbonyl)-7-[1,2-dihydro-2-oxo-3H-indol-(Z)-3-ylidene]-4,5,6,7-tetrahydro-1H-indole] | 1.1 | 12.8 | 11.7 | 78.4 | 23.3 | 29.5 | 31.9 | 14.6 | inhibition at 10 µM [11]: 36.5%
8 | CCOC(=O)c1c(C)[nH]c2c1CCC/C2=C1/C(=O)Nc2ccc(F)cc21 [I-1, ethyl 2-methyl-7-[1,2-dihydro-5-fluoro-2-oxo-3H-indol-(Z)-3-ylidene]-4,5,6,7-tetrahydro-1H-indole-3-carboxylate] | – | – | – | – | – | – | – | – | inhibition at 10 µM [12]: 28.6%
